The source of these data is patent US20080207708A1, “Oxazole and Thiazole Compounds and Their Use in the Treatment of Pge2 Mediated Disorders” (GLAXO GROUP LIMITED, priority 2005, published 2008).

SMILES strings stand for the structures. Structures can show the parent of a compound that is named as a salt.

For experiment [1], the target named is T1, EP1 receptors (Homo sapiens, UniProt P34995).
T1 sequence (P34995 1-402): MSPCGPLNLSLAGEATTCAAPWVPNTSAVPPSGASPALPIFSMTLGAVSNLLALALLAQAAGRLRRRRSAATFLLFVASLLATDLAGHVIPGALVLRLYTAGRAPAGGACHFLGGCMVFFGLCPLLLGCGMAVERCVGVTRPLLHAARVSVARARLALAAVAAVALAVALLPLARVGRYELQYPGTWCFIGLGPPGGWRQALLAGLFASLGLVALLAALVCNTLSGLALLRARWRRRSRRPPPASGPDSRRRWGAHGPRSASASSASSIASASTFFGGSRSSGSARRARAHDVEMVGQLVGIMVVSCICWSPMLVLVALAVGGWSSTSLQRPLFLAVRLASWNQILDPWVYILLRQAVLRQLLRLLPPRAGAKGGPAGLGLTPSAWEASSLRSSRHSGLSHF
Description: Binding assay for the human prostanoid EP1 receptor (competition with [3H]-PGE2). Details: expressed in transfected cells; host or cells: CHO-K1 cells, membrane fraction. The note with it: [3H]-PGE2 competition; averages of a number of experiments; read-out: pIC50 value, binding assay for the human prostanoid EP1 receptor (converted). The essentials:
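Membranes from CHO-K1 cells stably expressing human EP1 incubated with compounds and [3H]-PGE2 (3 nM final) for 30 min at 30° C in MES buffer with EDTA and MgCl2, pH 6. Bound radioactivity measured after filtration; IC50 from nonlinear fit of specific binding inhibition.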

For experiment [2], the target named is T1, EP1 receptors. Description: human EP1 calcium mobilisation assay (CHO-K1 cells, FLIPR, PGE2). The note with it: free bases or sodium salts; averages of a number of experiments; read-out: functional pKi value, human EP1 calcium mobilisation assay (converted). It counts as cell-based. Details: expressed in transfected cells; host or cells: CHO-K1 cells, pCIN vector. The protocol: Briefly, the antagonist properties of compounds are assessed by their ability to inhibit the mobilisation of intracellular calcium ([Ca^2+]i) in response to activation of EP1 or EP3 receptors by the natural agonist hormone prostaglandin E2 (PGE2). Increasing concentrations of antagonist reduce the amount of calcium that a given concentration of PGE2 can mobilise. The net effect is to displace the PGE2 concentration-effect curve to higher concentrations of PGE2. The amount of calcium produced is assessed using a calcium-sensitive fluorescent dye such as Fluo-4, AM and a suitable instrument such as a Fluorimetric Imaging Plate Reader (FLIPR). Increasing amounts of [Ca^2+]i produced by receptor activation increase the amount of fluorescence produced by the dye and give rise to an increasing signal. The signal may be detected using the FLIPR instrument and the data generated may be analysed with suitable curve-fitting software.
The human EP1 or EP3 calcium mobilisation assay (hereafter referred to as ‘the calcium assay’) utilises Chinese hamster ovary-K1 (CHO-K1) cells into which a stable (pCIN; BioTechniques 20 (1996): 102-110) vector containing either EP1 or EP3 cDNA has previously been transfected. Cells are cultured in suitable flasks containing culture medium such as DMEM:F-12 supplemented with 10% v/v foetal calf serum, 2 mM L-glutamine, 0.25 mg/ml geneticin, 100 μM flurbiprofen and 10 µg/ml puromycin. For assay, cells are harvested using a proprietary reagent that dislodges cells such as Versene. Cells are re-suspended in a suitable quantity of fresh culture media for introduction into a 384-well plate. Following incubation for 24 hours at 37° C. the culture media is replaced with a medium containing Fluo-4 and the detergent pluronic acid, and a further incubation takes place. Concentrations of compounds are then added to the plate in order to construct concentration-effect curves. This may be performed on the FLIPR in order to assess the agonist properties of the compounds. Concentrations of PGE2 are then added to the plate in order to assess the antagonist properties of the compounds. The data so generated may be analysed by means of a computerised curve-fitting routine. The concentration of compound that elicits a half-maximal inhibition of the calcium mobilisation induced by PGE2 (pIC50) may then be estimated.
In general terms: Calcium assays in cells follow changes in intracellular calcium, usually with a dye or a luminescent sensor.

`CC(C)COc1ccc(Cl)cc1Cc1nc(-c2nc3ccc(CCN4CCN(C)CC4)cc3[nH]2)cs1` [Example 117, 2-[2-({5-Chloro-2-[(2-methylpropyl)oxy]phenyl}-methyl)-1,3-thiazol-4-yl]-5-(2-(4-methyl-1-piperazinyl)ethyl]-1H-benzimidazole]: the IC50 in experiment [1] was at most 31.6 nM. For the same compound, in experiment [2], the Ki was under 1000 nM.

As to `CN(C)Cc1ccc(NC(=O)c2csc(Cc3cc(Cl)ccc3OCc3ccccc3)n2)cc1` [Example 118, 2-({5-Chloro-2-[(phenylmethyl)oxy]phenyl}methyl)-N-{4-[(dimethylamino)methyl]phenyl}-1,3-thiazole-4-carboxamide hydrochloride], in experiment [1], the IC50 is at most 1000 nM. The Ki in experiment [2] was over 1000 nM.

On to `O=C(Nc1ccc(CN2CCCC2)cc1)c1csc(Cc2cc(Cl)ccc2OCc2ccccc2)n1` [Example 119, 2-({5-Chloro-2-[(phenylmethyl)oxy]phenyl}-methyl)-N-[4-(1-pyrrolidinylmethyl)phenyl]-1,3-thiazole-4-carboxamidehydrochloride], for which the IC50 in experiment [1] is at most 1000 nM. Further, the Ki in experiment [2] is over 1000 nM.

As for `O=C(Nc1ccc(CN2CCOCC2)cc1)c1csc(Cc2cc(Cl)ccc2OCc2ccccc2)n1` [Example 120, 2-({5-Chloro-2-[(phenylmethyl)oxy]phenyl}-methyl)-N-[4-(4-morpholinylmethyl)phenyl]-1,3-thiazole-4-carboxamidehydrochloride], the IC50 in experiment [1] is at most 1000 nM. Further, in experiment [2], the Ki is over 1000 nM.

For `O=C(Nc1ccc(CN2CCCCC2)cc1)c1csc(Cc2cc(Cl)ccc2OCc2ccccc2)n1` [Example 121, 2-({5-Chloro-2-[(phenylmethyl)oxy]phenyl}-methyl)-N-[4-(1-piperidinylmethyl)phenyl]-1,3-thiazole-4-carboxamidehydrochloride], in experiment [1], the IC50 is at most 1000 nM. Besides, in experiment [2], the Ki was over 1000 nM.

As to `CC(C)COc1ccc(Cl)cc1Cc1nc(-c2nc3ccc(CN(C)C)cc3[nH]2)cs1` [Example 124, ({2-[2-({5-Chloro-2-[(2-methylpropyl)oxy]phenyl}-methyl)-1,3-thiazol-4-yl]-1H-benzimidazol-5-yl}methyl)dimethylaminehydrochloride], the IC50 in experiment [1] is at most 31.6 nM. For the same compound, the Ki in experiment [2] is under 1000 nM.

On to `CC(C)COc1ccc(Cl)cc1Cc1nc(-c2nc3ccc(CN4CCOCC4)cc3[nH]2)cs1` [Example 125, 2-[2-({5-Chloro-2-[(2-methylpropyl)oxy]phenyl}-methyl)-1,3-thiazol-4-yl]-5-(4-morpholinylmethyl)-1H-benzimidazolehydrochloride], for which the IC50 in experiment [1] is at most 31.6 nM. Further, in experiment [2], the Ki is under 1000 nM.

For `CNCc1ccc2nc(-c3csc(Cc4cc(Cl)ccc4OCC(C)C)n3)[nH]c2c1` [Example 126, ({2-[2-({5-Chloro-2-[(2-methylpropyl)oxy]phenyl}-methyl)-1,3-thiazol-4-yl]-1H-benzimidazol-5-yl}methyl)methylaminehydrochloride], the IC50 in experiment [1] was at most 31.6 nM. Moreover, in experiment [2], the Ki was under 1000 nM.

Regarding `CC(=O)Nc1csc(Cc2cc(Cl)ccc2OCc2ccccc2)n1` [Example 127, N-[2-({5-Chloro-2-[(phenylmethyl)oxy]phenyl}methyl)-1,3-thiazol-4-yl]acetamide], in experiment [1], the IC50 was at most 1000 nM. Further, in experiment [2], the Ki was over 1000 nM.

As to `CCC(=O)Nc1csc(Cc2cc(Cl)ccc2OCc2ccccc2)n1` [Example 128], the IC50 in experiment [1] is at most 1000 nM. Further, the Ki in experiment [2] was over 1000 nM.

Take `CC(C)C(=O)Nc1csc(Cc2cc(Cl)ccc2OCc2ccccc2)n1` [Example 129, N-[2-({5-Chloro-2-[(phenylmethyl)oxy]phenyl}methyl)-1,3-thiazol-4-yl]-2-methylpropanamide]: the IC50 in experiment [1] was at most 1000 nM. The Ki in experiment [2] is under 1000 nM.

`O=C(Cc1ccccc1)Nc1csc(Cc2cc(Cl)ccc2OCc2ccccc2)n1` [Example 130, N-[2-({5-Chloro-2-[(phenylmethyl)oxy]phenyl}methyl)-1,3-thiazol-4-yl]-2-phenylacetamide]: in experiment [1], the IC50 was at most 1000 nM. Further, the Ki in experiment [2] was under 1000 nM.

For `Clc1ccc(OCc2ccccc2)c(Cc2nc(-c3nc4ccccc4[nH]3)cs2)c1` [Example 131, 2-[2-({5-Chloro-2-[(phenylmethyl)oxy]phenyl}methyl)-1,3-thiazol-4-yl]-1H-benzimidazole], in experiment [1], the IC50 was at most 1000 nM. In addition, the Ki in experiment [2] was under 1000 nM.

With `CC(C)COc1ccc(Cl)cc1Cc1nc(-c2nc3ncccc3[nH]2)cs1` [Example 132, 2-[2-({5-Chloro-2-[(2-methyl-propyl)oxy]-phenyl}methyl)-1,3-thiazol-4-yl]-1H-imidazo[4,5-b]pyridine], the IC50 in experiment [1] was at most 31.6 nM. In addition, the Ki in experiment [2] is under 1000 nM.

Take `Clc1ccc(OCc2ccccc2)c(Cc2nc(-c3nc4ncccc4[nH]3)cs2)c1` [Example 133, 2-[2-({5-Chloro-2-[(phenylmethyl)oxy]phenyl}methyl)-1,3-thiazol-4-yl]-1H-imidazo[4,5-b]pyridine]: the IC50 in experiment [1] was at most 1000 nM. In experiment [2], the Ki was under 1000 nM.

Turning to `Clc1ccc(OCc2ccccc2)c(Cc2nc(-c3nc4ncc(Br)cc4[nH]3)cs2)c1` [Example 134, 6-Bromo-2-[2-({5-chloro-2-[(phenylmethyl)oxy]phenyl}methyl)-1,3-thiazol-4-yl]-1H-imidazo[4,5-b]pyridine], the IC50 in experiment [1] is at most 1000 nM. Also, in experiment [2], the Ki is under 1000 nM.

Regarding `CC(C)COc1ccc(Cl)cc1Cc1nc(-c2nc3cnccc3[nH]2)cs1` [Example 135, 2-[2-({5-Chloro-2-[(2-methyl-propyl)oxy]-phenyl}methyl)-1,3-thiazol-4-yl]-1H-imidazo[4,5-c]pyridinehydrochloride], in experiment [1], the IC50 was at most 31.6 nM. The Ki in experiment [2] is at most 31.6 nM.

For `CC(C)COc1ccc(Cl)cc1Cc1nc(-c2nc3nccnc3[nH]2)cs1` [Example 136, 2-[2-({5-Chloro-2-[(2-methyl-propyl)oxy]-phenyl}methyl)-1,3-thiazol-4-yl]-1H-imidazo[4,5-b]pyrazinehydrochloride], in experiment [1], the IC50 was at most 31.6 nM. In addition, the Ki in experiment [2] is at most 31.6 nM.

For the compound `Clc1ccc(OCc2ccccc2)c(Cc2nc(-c3nc4ccc(N5CCCC5)nc4[nH]3)cs2)c1` [Example 137, 2-[2-({5-Chloro-2-[(phenylmethyl)oxy]phenyl}methyl)-1,3-thiazol-4-yl]-5-(1-pyrrolidinyl)-1H-imidazo[4,5-b]pyridinehydrochloride], in experiment [1], the IC50 is at most 1000 nM. The Ki in experiment [2] was under 1000 nM.

Turning to `O=C(O)c1cccc2nc(-c3csc(Cc4cc(Cl)ccc4OCc4ccccc4)n3)[nH]c12` [Example 139, 2-[2-({5-Chloro-2-[(phenylmethyl)oxy]phenyl}methyl)-1,3-thiazol-4-yl]-1H-benzimidazole-4-carboxylic acid], the IC50 in experiment [1] is at most 1000 nM. The Ki in experiment [2] was under 1000 nM.

As to `CC(C)COc1ccc(Cl)cc1Cc1nc(-c2nc3ccc(Cl)nc3[nH]2)cs1` [Example 140, 5-Chloro-2-[2-({5-chloro-2-[(2-methylpropyl)oxy]phenyl}methyl)-1,3-thiazol-4-yl]-1H-imidazo[4,5-b]pyridinehydrochloride], in experiment [1], the IC50 was at most 31.6 nM. Besides, the Ki in experiment [2] is under 1000 nM.

With `CC(C)COc1ccc(Cl)cc1C(F)(F)c1nc(-c2nc3ccccc3[nH]2)cs1` [Example 141, 2-{2-[{5-chloro-2-[(2-methylpropyl)oxy]phenyl}(difluoro)methyl]-1,3-thiazol-4-yl}-1H-benzimidazole hydrochloride], the IC50 in experiment [1] is at most 1000 nM. For the same compound, in experiment [2], the Ki is over 1000 nM.
